Test results reported in patent publication US20230345940A1, “INSECTICIDE” (Western Sydney University, priority 2020, published 2023).
Where two headings read alike, the source gives them in different places.

Legend:
Type in all cases: in vivo
[1] = tested on: two-spotted spider mite (TSM), Tetranychus urticae Koch; experiment: Potter spray tower bioassay on leaf discs, two-spotted spider mite; conditions: 1.0% w/v; for mortality at 1 % strength: Tetranychus urticae, foliar
Source text: Tetranychus urticae Koch, (Acari: Tetranychidae), commonly known as two-spotted spider mite is a cosmopolitan, phytophagous species, and an important agricultural pest in many temperate and sub-tropical countries. It is highly polyphagous, and feeds primarily on plant foliage. Tetranychus urticae Koch UWS 1 (organophosphate-susceptible) strain, originally obtained from Dr Grant Herron, NSW
Department of Primary Industries, Menangle NSW, Australia, but had been maintained at WSU Hawkesbury campus for approximately 18 years. They were reared on potted French beans, Phaseolus vulgaris var Redland Pioneer (in a constant temperature room maintained at 25±2° C., 65±5% RH and 14 h D: L photoperiod. The culture was reared on potted dwarf French bean (Phaseolus vulgaris L. var. Redland Pioneer) plants grown in a composted pinebark-based potting medium in a large (7.0 m (1)×6.0 m (w)×4.0 m (h)), pesticide-free, constant temperature room (28-30° C., 50% RH, 18:6, D:L). Only young gravid female two-spotted mites were selected for bioassay.
For the two-spotted spider mite, screening of each sample was conducted on 20-40 adult female mites, which were evenly distributed on 1-3 French bean leaf discs (25 mm diam.) contained in 90 mm diameter Petri dishes. The leaf discs were placed with their underside uppermost on moist absorbent cotton wool. Water was added to the dishes daily to prevent desiccation of the leaf discs and preventing the mites from escaping the leaf disc.
A 3.0 mL aliquot was applied to each Petri dish with a Potter precision spray tower as described by Herron et al., Potter spray tower bioassay of selected citrus pests to petroleum spray oil, Journal of the Australian Entomological Society 34, 253-263, 1995.
The average weight of the solution sprayed on each dish was calculated to be 5.385 mg/cm^2 or 0.05385 mg/cm^2 active ingredient (a.i.). Dishes were retained under laboratory conditions (24±2° C., 50±15% RH) for post-treatment observations. Mortality was recorded 24 h and 48 h after treatment (HAT). Death was recognised by the absence of movement when the test organisms were mechanically stimulated by prodding with a brush.
(§1) For each batch of investigations, control treatments were conducted, with methodology identical to other treatments. The control treatment solutions comprised 3 mL aliquots of 200 ppm Triton X-100 in distilled water and acetone or hexane at the same concentration as the test solutions. Investigations were discarded if control mortality exceeded 15%. Treatment mortality was calculated and is presented as corrected mortality, to account for any control mortality (Abbott WS., A method of computing the effectiveness of an insecticide. Journal of Economic Entomology, 18, 265-267, 1925).

[2] = tested on: neonate Helicoverpa armigera; experiment: Potter spray tower bioassay on leaf discs, Helicoverpa neonates; conditions: 1.0% w/v; for mortality at 1 % strength: Helicoverpa armigera, foliar
Source text: Helicoverpa armigera (Hubner) (Lepidoptera: Noctuidae), commonly known as the cotton bollworm or as heliothis, is a widespread species, with an extensive host range (see, e.g., https://www.cabi.org/isc/datasheet/26757). It typically feeds selectively on high protein plant parts, such as flowers, buds and fruits. Helicoverpa armigera was obtained as fresh eggs from AgBiTech Pty. Ltd, Glenvale QLD, Australia, or CSIRO Agriculture and Food, Cotton Research Institute, Myall Vale NSW, Australia.
Eggs (50-75) were transferred with a fine camel hair brush onto 90 mm Whatman No. 1 filter paper partially moistened with distilled water and thin slices from the artificial medium supplied by AgBiTech were placed on the filter paper as a source of food for the hatching caterpillars. The eggs were left to hatch under laboratory conditions of 25±3° C. and 65±10% RH. Hatching occurred within 24 h and bioassays were carried out on neonate larvae with an average weight of […].
For Helicoverpa, neonate larvae 4-12 h after hatching were transferred individually to a cotton plant leaf disc (35 mm diameter) mounted with its lower side uppermost on 1% agar in an Easy Grip Tissue Culture Dish dimensions 35×10 mm (Corning Incorporated, Corning NY, USA). […] Thus, each replicate comprised 4 neonates.
Following spraying, the small dishes were covered with a perforated plastic sheet and then placed in plastic insect cages previously described for aphid bioassays. The number of dishes sprayed per sample was 4-10. Dishes were retained under laboratory conditions (24±2° C., 50±15% RH) for post-treatment observations. Mortality counts were conducted at 24 and 48 HAT. Absence of the caterpillar movement when prodded with a fine brush was taken as the criterion of death.
as §1

[3] = tested on: cotton aphid, Aphis gossypii; experiment: Potter spray tower bioassay on leaf discs, cotton aphid; conditions: 1.0% w/v
Method: Aphis gossypii (susceptible strain) (Hemiptera: Aphididae), was established as a culture from material supplied by Dr Grant Herron, NSW Department of Primary Industries, Menangle NSW, Australia. Aphids were reared on potted Gossypium hirsutum L. (Malvaceae) grown from non-insecticide-treated conventional cotton seed, supplied by Dr Robert Mensah, NSW Department of Primary Industries, Narrabri NSW, Australia. The culture was maintained in a temperature-controlled greenhouse chamber set at 27±3° C. and 55±10% RH (relative humidity) and natural light. Only young adult females were selected for bioassay.
For the cotton aphid, parthenogenetic adult female aphids were collected from the cultures on cotton plants. Fifteen adults were transferred using a fine camel hair brush onto the lower side of a respective leaf disc 50 mm diameter mounted on 1.0% w/v agar in a plastic insect cage measuring 50 mm diameter×15 mm height plastic insect breeding 50 mm diameter×15 height (SPL Life Sciences, Korea).
Aliquots (3 mL) of the 1% w/v extracts were applied with a Potter Spray Tower for each treatment, as described above, and the spray was allowed to partially dry before the cage was covered with its lid and the sides of the cage sealed with Parafilm M®.
Dishes were retained under laboratory conditions (24±2° C., 50±15% RH) for post-treatment observations. […]

CCc1c(OC)oc(CCCCCCCCCC(C)=O)c(C)c1=O [Fraction 42, 10′-oxopodopyrone]
mortality at 1 % strength ([1]; read-out: Corrected percentage mortality TSM 24 HAT): 100%
mortality at 1 % strength ([1]; read-out: Corrected percentage mortality TSM 48 HAT): 100%
mortality at 1 % strength ([2]; read-out: Corrected percentage mortality Helicoverpa 24 HAT): 0%
mortality at 1 % strength ([2]; read-out: Corrected percentage mortality Helicoverpa 48 HAT): 0%

10′-oxo-8-methyl podopyrone [Fraction 44]
Corrected percentage mortality TSM 24 HAT [1]: 100.0%
Corrected percentage mortality TSM 48 HAT [1]: 100.0%
Corrected percentage mortality Helicoverpa 24 HAT [2]: 100.0%
Corrected percentage mortality Helicoverpa 48 HAT [2]: 100.0%
Corrected percentage mortality Cotton aphid 24 HAT [3]: 100.0%
